Experimental data: patent publication US20160120863A1, “SLC2A TRANSPORTER INHIBITORS” (IOMET PHARMA LTD., priority 2013, published 2016)

Columns and labels:
Type in all cases: cell-based
human GLUT3 = target: T1, human GLUT3 (Homo sapiens, UniProt P11169); assay: [3H]-deoxy-D-glucose uptake assay, GLUT3; details: [3H]-deoxy-D-glucose uptake in HEK293 cells stably expressing human GLUT3
T1 construct: expressed in transfected cells
T1 sequence (P11169 1-496): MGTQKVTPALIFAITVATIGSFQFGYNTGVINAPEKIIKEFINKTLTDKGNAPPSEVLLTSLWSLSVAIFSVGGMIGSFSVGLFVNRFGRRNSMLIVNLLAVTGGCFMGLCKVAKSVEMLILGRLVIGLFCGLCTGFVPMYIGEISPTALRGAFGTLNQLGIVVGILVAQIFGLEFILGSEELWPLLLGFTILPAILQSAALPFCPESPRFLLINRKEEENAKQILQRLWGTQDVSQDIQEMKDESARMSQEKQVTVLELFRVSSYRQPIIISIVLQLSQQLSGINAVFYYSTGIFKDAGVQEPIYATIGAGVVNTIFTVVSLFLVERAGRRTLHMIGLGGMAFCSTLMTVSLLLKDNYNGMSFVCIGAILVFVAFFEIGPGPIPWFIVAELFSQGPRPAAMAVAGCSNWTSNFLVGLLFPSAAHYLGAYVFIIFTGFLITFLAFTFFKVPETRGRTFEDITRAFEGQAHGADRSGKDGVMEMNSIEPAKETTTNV
Experimental: (§1) HEK293 cells were engineered to stably express either human GLUT1, GLUT2, GLUt3 or GLUT4 by transfection with the pReceiver-Lv105 plasmid, containing either hGLUT1, hGLUT2, hGLUT3, or hGLUT4 gene constructs with lipofectamine 2000, hGLUT1- hGLUT2- hGLUT3- or hGLUT4-overexpressing polyclonal populations were isolated under purinomycin selective pressure (1 μg/ml) and maintained in Dulbecco's modified Eagle's medium supplemented with 1 μg/ml purinomycin+10% foetal bovine serum (FBS).
(§2) 60,000 cells per well were seeded overnight into poly-D-lysine coasted 96-well plates. Following media removal, cells were washed twice in warm glucose-free uptake buffer (25 mM HEPES/KOH pH 7.4, 125 mM NaCl, 4.8 mM KCl, 1.2 mM MgSO4, 1.2 mM CaCl2, 1.2 mM KH2PO4). 90 μl of test compounds were added in glucose-free uptake buffer and cells were incubated at 37° C. for 30 min. 10 μl of [3H]-deoxy-D-glucose (0.25 μCi, 125 μM final assay concentration) was then added per well in glucose-free uptake buffer and uptake was allowed to proceed at 37° C. for 30 min.
(§3) Cells were then washed twice with ice-cold PBS and 100 μl of Microscint-20 was added per well. Glucose uptake was quantified with a scintillation counter. The half maximal inhibitory concentration (IC50) (a measure of the effectiveness of the test compound in inhibiting glucose uptake) was determined.

human GLUT1 = target: T2, human GLUT1 (Homo sapiens, UniProt P11166); assay: [3H]-deoxy-D-glucose uptake assay, GLUT1; details: [3H]-deoxy-D-glucose uptake in HEK293 cells stably expressing human GLUT1
T2 construct: expressed in transfected cells
T2 sequence (P11166 1-492): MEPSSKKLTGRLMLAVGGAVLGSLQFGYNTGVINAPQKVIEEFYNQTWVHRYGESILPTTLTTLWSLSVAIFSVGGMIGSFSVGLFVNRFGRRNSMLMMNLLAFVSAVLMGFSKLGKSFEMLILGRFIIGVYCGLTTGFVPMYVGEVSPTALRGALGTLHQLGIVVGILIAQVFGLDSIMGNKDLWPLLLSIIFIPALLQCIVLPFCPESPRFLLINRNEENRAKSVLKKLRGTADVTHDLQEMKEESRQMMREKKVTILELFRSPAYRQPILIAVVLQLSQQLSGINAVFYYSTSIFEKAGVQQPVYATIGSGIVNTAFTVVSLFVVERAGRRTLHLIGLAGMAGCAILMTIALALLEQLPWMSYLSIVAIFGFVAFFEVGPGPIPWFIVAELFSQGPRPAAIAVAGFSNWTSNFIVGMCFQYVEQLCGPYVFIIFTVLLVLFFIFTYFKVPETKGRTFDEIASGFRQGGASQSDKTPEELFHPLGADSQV
In short: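 HEK293 cells stably overexpressing human GLUT1 or GLUT2, seeded at 60,000 per well, treated with compounds in glucose-free uptake buffer for 30 min at 37 °C. [3H]-deoxy-D-glucose uptake quantified by scintillation counting after ice-cold PBS washes; IC50 determined.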

human GLUT4 = target: T3, human GLUT4 (Homo sapiens, UniProt P14672); assay: [3H]-deoxy-D-glucose uptake assay, GLUT4; details: [3H]-deoxy-D-glucose uptake in HEK293 cells stably expressing human GLUT4
T3 construct: expressed in transfected cells
T3 sequence (P14672 1-509): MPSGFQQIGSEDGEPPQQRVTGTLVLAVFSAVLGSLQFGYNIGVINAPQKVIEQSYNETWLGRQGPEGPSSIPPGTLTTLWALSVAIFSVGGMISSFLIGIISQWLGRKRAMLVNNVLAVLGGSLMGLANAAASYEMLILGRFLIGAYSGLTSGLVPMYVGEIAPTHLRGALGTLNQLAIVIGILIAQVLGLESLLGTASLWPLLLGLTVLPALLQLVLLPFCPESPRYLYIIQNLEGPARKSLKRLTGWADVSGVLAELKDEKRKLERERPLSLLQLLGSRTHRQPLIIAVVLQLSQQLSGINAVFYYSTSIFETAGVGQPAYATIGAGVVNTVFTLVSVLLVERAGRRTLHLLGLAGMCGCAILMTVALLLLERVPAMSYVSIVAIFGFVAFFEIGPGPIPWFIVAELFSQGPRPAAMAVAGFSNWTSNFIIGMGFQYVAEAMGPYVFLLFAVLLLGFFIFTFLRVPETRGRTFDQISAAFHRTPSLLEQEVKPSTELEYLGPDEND
Experimental: as §1, §2, §3

human GLUT2 = target: T4, human GLUT2 (Homo sapiens, UniProt P11168); assay: [3H]-deoxy-D-glucose uptake assay, GLUT2; details: [3H]-deoxy-D-glucose uptake in HEK293 cells stably expressing human GLUT2
T4 construct: expressed in transfected cells
T4 sequence (P11168 1-524): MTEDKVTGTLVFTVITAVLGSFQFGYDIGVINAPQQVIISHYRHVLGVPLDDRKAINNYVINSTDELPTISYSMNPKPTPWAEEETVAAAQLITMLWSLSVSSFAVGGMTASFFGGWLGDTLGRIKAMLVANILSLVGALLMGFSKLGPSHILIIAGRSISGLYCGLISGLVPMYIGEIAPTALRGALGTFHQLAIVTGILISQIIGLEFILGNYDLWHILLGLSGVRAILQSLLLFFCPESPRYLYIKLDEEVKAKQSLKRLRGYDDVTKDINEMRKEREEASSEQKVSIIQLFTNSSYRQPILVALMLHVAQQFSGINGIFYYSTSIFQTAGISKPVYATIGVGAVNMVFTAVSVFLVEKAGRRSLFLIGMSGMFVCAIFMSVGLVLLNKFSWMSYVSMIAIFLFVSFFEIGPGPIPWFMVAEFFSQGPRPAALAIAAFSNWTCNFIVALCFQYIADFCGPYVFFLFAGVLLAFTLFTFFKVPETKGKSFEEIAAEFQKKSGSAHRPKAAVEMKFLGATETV
Experimental: as §1
60,000 cells per well were seeded overnight into poly-D-lysine coasted 96-well plates. […] 90 μl of test compounds were added in glucose-free uptake buffer and cells were incubated at 37° C. for 30 min.
as §3

Row | SMILES | GLUT3 pIC50 (human GLUT3) | GLUT1 pIC50 (human GLUT1) | GLUT4 pIC50 (human GLUT4) | GLUT2 pIC50 (human GLUT2)
1 | O=C(c1cccc(F)c1)N1CCN(Cc2c(-c3ccc(Cl)cc3)nc3ccc(-c4ccccc4)cn23)CC1 [Compound 8] | +++ (pIC50 ≧ 6.00) | +++ (pIC50 ≧ 6.00) | +++ (pIC50 ≧ 6.00) | +++ (pIC50 ≧ 6.00)
2 | Fc1ccc(-c2ccc3nc(-c4ccc(Cl)cc4)c(CN4CCOCC4)n3c2)cc1 [Compound 79] | + (pIC50 4.00-4.99) | +− (pIC50 < 4.00) | ++ (pIC50 5.00-5.99) | +− (pIC50 < 4.00)
3 | Fc1ccccc1-c1ccc2nc(-c3ccc(Cl)cc3)c(CN3CCOCC3)n2c1 [Compound 80] | +++ (pIC50 ≧ 6.00) | +++ (pIC50 ≧ 6.00) | +++ (pIC50 ≧ 6.00) | –
4 | Clc1ccc(-c2nc3ccc(-c4ccccc4Cl)cn3c2CN2CCOCC2)cc1 [Compound 116] | +++ (pIC50 ≧ 6.00) | +++ (pIC50 ≧ 6.00) | +++ (pIC50 ≧ 6.00) | –
5 | Fc1cccc(F)c1-c1ccc2nc(-c3ccc(Cl)cc3)c(CN3CCOCC3)n2c1 [Compound 143] | +++ (pIC50 ≧ 6.00) | +++ (pIC50 ≧ 6.00) | +++ (pIC50 ≧ 6.00) | +++ (pIC50 ≧ 6.00)
6 | Clc1ccc(-c2nc3cnc(C4CC4)cn3c2CN2CCOCC2)cc1 [Compound 164] | +++ (pIC50 ≧ 6.00) | +++ (pIC50 ≧ 6.00) | +++ (pIC50 ≧ 6.00) | +++ (pIC50 ≧ 6.00)
7 | Cc1c(-c2ccccc2)ccc2nc(-c3ccc(Cl)cc3)c(CN3CCOCC3)n12 [Compound 170] | +++ (pIC50 ≧ 6.00) | +++ (pIC50 ≧ 6.00) | +++ (pIC50 ≧ 6.00) | –
8 | CC(=O)N1CCN(Cc2c(-c3ccc(Cl)cc3)nc3cnc(C4CC4)cn23)CC1 [Compound 187] | +++ (pIC50 ≧ 6.00) | +++ (pIC50 ≧ 6.00) | +++ (pIC50 ≧ 6.00) | +++ (pIC50 ≧ 6.00)
9 | CC(=O)N1CCN(Cc2c(-c3ccc(Cl)cc3)nc3ccc(-c4ccccc4C#N)cn23)CC1 [Compound 214] | +++ (pIC50 ≧ 6.00) | +++ (pIC50 ≧ 6.00) | +++ (pIC50 ≧ 6.00) | +++ (pIC50 ≧ 6.00)
10 | Fc1cccc(F)c1-c1cn2c(CN3CCOCC3)c(-c3ccc(Cl)cc3)nc2cn1 [Compound 238] | +++ (pIC50 ≧ 6.00) | +++ (pIC50 ≧ 6.00) | +++ (pIC50 ≧ 6.00) | +++ (pIC50 ≧ 6.00)
11 | CN(c1ccc2nc(-c3ccc(Cl)cc3)c(CN3CCOCC3)n2c1)S(C)(=O)=O [Compound 252] | +++ (pIC50 ≧ 6.00) | +++ (pIC50 ≧ 6.00) | +++ (pIC50 ≧ 6.00) | ++ (pIC50 5.00-5.99)
12 | O=C(c1ccncc1)N1CCN(Cc2c(-c3ccc(Cl)cc3)nc3cnc(C4CC4)cn23)CC1 [Compound 265] | +++ (pIC50 ≧ 6.00) | +++ (pIC50 ≧ 6.00) | +++ (pIC50 ≧ 6.00) | +++ (pIC50 ≧ 6.00)
13 | CC(=O)N1CCN(Cc2c(-c3ccc(Cl)cc3Cl)nc3cnc(C4CC4)cn23)CC1 [Compound 271] | +++ (pIC50 ≧ 6.00) | +++ (pIC50 ≧ 6.00) | +++ (pIC50 ≧ 6.00) | +++ (pIC50 ≧ 6.00)

Results, then the compound that gave them:

Row | GLUT3 pIC50 (human GLUT3) | GLUT1 pIC50 (human GLUT1) | GLUT4 pIC50 (human GLUT4) | GLUT2 pIC50 (human GLUT2) | SMILES
14 | +++ (pIC50 ≧ 6.00) | +++ (pIC50 ≧ 6.00) | +++ (pIC50 ≧ 6.00) | +++ (pIC50 ≧ 6.00) | O=C(c1cnccn1)N1CCN(Cc2c(-c3ccc(Cl)cc3Cl)nc3cnc(C4CC4)cn23)CC1 [Compound 273]
15 | – | +++ (pIC50 ≧ 6.00) | – | +++ (pIC50 ≧ 6.00) | CC(=O)N1CCN(Cc2c(-c3ccc(Cl)cc3Cl)nc3ccc(N4CCCCS4(=O)=O)cn23)CC1 [Compound 354]
16 | – | +++ (pIC50 ≧ 6.00) | – | ++ (pIC50 5.00-5.99) | CS(=O)(=O)Nc1ccc2nc(-c3ccc(Cl)cc3Cl)c(CN3CCOCC3)n2c1 [Compound 357]
17 | – | +++ (pIC50 ≧ 6.00) | – | +++ (pIC50 ≧ 6.00) | CC(=O)N1CCN(Cc2c(-c3ccc(Cl)cc3Cl)nc3cnc(C(C)C)cn23)CC1 [Compound 358]
18 | – | +++ (pIC50 ≧ 6.00) | – | ++ (pIC50 5.00-5.99) | CS(=O)(=O)Nc1ccc2nc(-c3ccc(Cl)cc3Cl)c(CN3CCNC(=O)C3)n2c1 [Compound 359]
19 | – | +++ (pIC50 ≧ 6.00) | – | ++ (pIC50 5.00-5.99) | CS(=O)(=O)Nc1ccc2nc(-c3ccc(Cl)cc3Cl)c(CN3CCCOCC3)n2c1 [Compound 362]
20 | – | ++ (pIC50 5.00-5.99) | – | +− (pIC50 < 4.00) | O=S1(=O)CCN(Cc2c(-c3ccc(Cl)cc3)nc3ccc(-c4ccccc4)cn23)CC1 [Compound 364]
21 | – | ++ (pIC50 5.00-5.99) | – | +− (pIC50 < 4.00) | CS(=O)(=O)c1ccc2nc(-c3ccc(Cl)cc3)c(CN3CCOCC3)n2c1 [Compound 379]
22 | – | +++ (pIC50 ≧ 6.00) | – | ++ (pIC50 5.00-5.99) | CC(=O)N1CCN(Cc2c(-c3ccc(Cl)cc3)nc3ccc(S(=O)(=O)N4CCCC4)cn23)CC1 [Compound 383]
23 | – | +++ (pIC50 ≧ 6.00) | – | ++ (pIC50 5.00-5.99) | CCNS(=O)(=O)c1ccc2nc(-c3ccc(Cl)cc3)c(CN3CCN(C(C)=O)CC3)n2c1 [Compound 384]
